According to ChEMBL document CHEMBL3286278, “Antifungal and cytotoxic 2-acylcyclohexane-1,3-diones from Peperomia alata and P. trineura” (J Nat Prod, 2014):

Experiments:
[1] = tested on: Cladosporium sphaerospermum; test: Antifungal activity against Cladosporium sphaerospermum after 48 hrs; type: functional
[2] = tested on: Cladosporium cladosporioides; test: Antifungal activity against Cladosporium cladosporioides after 48 hrs; type: functional
K562 = test: Cytotoxicity against human K562 cells after 48 hrs by MTT assay; type: functional, cell-based; conditions: K562, 48 h
[3] = Cytotoxicity against human NALM6 cells after 48 hrs by MTT assay; type: functional, cell-based; conditions: NALM-6, 48 h

Row | Compound | Activity [1] [µg] | Activity [2] [µg] | IC50 (K562) [µM] | IC50 [3] [µM]
1 | Clc1ccc(COC(Cn2ccnc2)c2ccc(Cl)cc2Cl)c(Cl)c1 (stereo not given) [MICONAZOLE] | 1 | 1 |  | 
2 | O=C(CCCCCCCC/C=C/c1ccccc1)C1=C(O)CCCC1=O | 25 | 5 |  | 
3 | O=C1CCCC(O)=C1C(=O)CCc1ccc2c(c1)OCO2 | 0.5 | 0.5 |  | 
4 | O=C(CCCCCCCCCCCCCCc1ccc2c(c1)OCO2)C1=C(O)CCCC1=O | 5 | 5 |  | 
5 | O=C(CCCCCCCCCCCCCCCCc1ccc2c(c1)OCO2)C1=C(O)CCCC1=O | 5 | 5 |  | 
6 | NYSTATIN | 1 | 1 |  | 
7 | CCCCC/C=C\CCCCCCCCC(=O)C1=C(O)CCCC1=O | 25 | 10 |  | 
8 | O=C(CC/C=C/c1ccccc1)C1=C(O)CCCC1=O | 0.25 | 0.25 |  | 
9 | CCCCC/C=C\CCCCCCCCC(=O)C1=C(O)CC[C@@H](O)C1=O | 10 | 1 | 26 | 14.3
